Patent US6893821B2, “Agents that modulate DNA-PK activity and methods of use thereof” (The Regents of the University of California, priority 2000, dated 2005)
“Also recorded” adds a separate entry of the source.

What was measured:
[1] = test system: IL-6, IL-12 message in liver; assay: RT-PCR for IL-6 and IL-12 message in livers of mice injected i.v. with ODN; format: in vivo; settings: mice i.v. 200 μl (1 μg/μl in PBS) of ss or ds ODN; 2.5 hours
NF-κB = NF-κB activation in treated BMDM (EMSA); format: cell-based, mice
Protocol: (§1) The ODNs (ps-ss) used include an ISS-ODN with an active CpG motif (AACGTT), a methylated ISS-ODN at the ^5C of the CpG dinucleotide (AA*CGTT) and various control ODNs. These ODNs were incubated at concentrations of 0, 0.1, 0.3, or 1 ng/reaction. The po-ISS-ODN was incubated at concentration of 20, 50 or 100 ng/reaction. The po-ds-ISS-ODN was incubated at concentration of 0, 0.5, 1, 2, 5 or 10 ng/reaction. The bacterial or calf thymus DNAs were each incubated at concentration of 1, 2 or 5 ng/reaction. Electrophoretic gel mobility shift assay (EMSA) was performed as previously described. Chu et al. (1999) Immunity 11:721-731; and Li et al., 1999, supra). In vitro IKK kinase assays were performed using purified IKK derived from Sf9 insect cell lysates as was previously described. Zandi et al. (1998) Science 281:1360-1363.

DNA-PK [2] = molecular target: T1, DNA-PK (Mus musculus, UniProt P23475+P27641+P97313); assay: DNA-PK activity in treated BMDM by immune-complex kinase assay; format: cell-based, mice; settings: wt BMDM
T1 construct: endogenous in cells; host or cells: mouse bone marrow-derived macrophages (BMDM)
Protocol: (§2) Kinase assays and immunoblotting were performed according to Li et al. ((1999) J. Exp. Med. 189:1839-1845). Briefly, BMDM were treated with ISS-ODN (5 μg/ml), M-ODN (5 μg/ml) on ps and po backbones as indicated, LPS-free bacterial DNA or methylated bacterial DNA (5 μg/ml), LPS-free calf thymus DNA (5 μg/ml), LPS (10 μg/ml) or TNFα (10 ng/ml) for the indicated time periods. Cell lysates were prepared and normalized by immunoblotting (IB) with anti-IKKα polyclonal antibodies (Santa Cruz, Santa Cruz Biotech Inc., Calif.), anti-IKKβ polyclonal antbodies (Santa Cruz) or anti-DNA-PKcs monoclonal antibodies (NeoMarker, Calif.). IκB kinase (IKK) complex or DNA-PK complex from 100 μg of the lysates were immunoprecipitated by anti-IKKα or by anti-DNA-PKcs antibodies. The kinase activities (KA) were determined by a kinase assay using the N-terminus of IκBα (for IKK) or the N-terminus of p53 (for DNA-PK) as a substrate as previously described. Wang et al. (1992) Proc. Natl. Acad. Sci. USA 89:4231-4235; Li et al.(1999), supra; and Hammarsten et al. (2000) J. Biol. Chem. 275:1541-1545.
(§3) To further determine whether ISS-ODN, po-ISS-ODN or bacterial DNA activate DNA-PK in cells, we treated BMDM from either wt or DNA-PKcs-deficient mice with ISS-ODN, po-ISS-ODN, bacterial DNA or LPS as a control.

DNA-PK [3] = assay: as above; format: cell-based, mice; settings: DNA-PKcs-deficient BMDM
Protocol: as §2, §3

IKKβ = assay: In vitro IKK kinase assay: recombinant IKKβ incubated with DNA-PK with or without ISS-ODN; format: biochemical
Protocol: as §1
To explore a role of ISS-activated DNA-PK in IKK activation we tested whether affinity-purified DNA-PK can directly activate recombinant IKKα or IKKβ purified from Sf9 cells (Zandi et al., 1998, supra). […] Furthermore, although DNA-PKcs phosphorylated IκBα that activity was considerably lower than that achieved by IKKβ plus DNA-PK. […] To further confirm the activation of IKKβ by DNA-PK, we performed a coupled-kinase assay. Recombinant IKKβ was pre-incubated with DNA-PK in the presence or absence of ISS-ODN followed by immunoprecipitation of IKKβ and IκB kinase activity was measured. […] We next determined whether DNA-PK phosphorylates IKKβ.

HSP70 = assay: RT-PCR for induction of heat shock protein gene transcription in BMDM; format: cell-based, mouse
Protocol: A half million mouse BMDM isolated from BALB/c, IFNα receptor knockout, or IFNγ knockout mice were incubated with ISS-ODN or M-ODN at a final concentration of 10 μg/ml. After 0, 1, 2, 4, 6, and 8 hours, total RNA was prepared and analyzed by RT-PCR (reverse transcription-polymerase chain reaction) for induction of gene transcription of heat shock proteins. The sequences of the primers used is as follows: […]

[4] = test system: bone marrow derived macrophages (BMDM); settings: Martin-Orozco et al. (1999); cited from earlier work

time of peak DNA-PK activity (DNA-PK [2]): 1 h
DNA-PK activity in cells (DNA-PK [2]; 30-minute incubation): Considerable DNA-PK activity
phosphorylation of catalytically inactive IKKβ (KA) by DNA-PK (IKKβ; incubated with ISS-ODN): phosphorylated
kinase activity of IKKβ measured by IκB phosphorylation (IKKβ; recombinant IKKβ incubated with DNA-PK in the presence of ISS-ODN): further increased
Substance: 5′-TGACTGTGAACGTTCGAGATGA-3′ [ISS-ODN]
IL-6 and IL-12 message in liver (RT-PCR) [1]: readily detected; also recorded: cytokine induction
NF-κB activation, wt vs ATM-deficient BMDM (NF-κB; ATM-deficient BMDM): no differences were observed
NF-κB activation (NF-κB; DNA-PKcs-/- BMDM): impaired NF-κB activation
NF-κB activation (NF-κB; IKKβ-/- Tnfr-/- BMDM (absence of IKKβ)): prevented
DNA-PK activity in cells (DNA-PK [3]): Little or no DNA-PK activity
activation of IKKβ by DNA-PK, coupled-kinase assay (IKKβ; pre-incubation with DNA-PK with or without ISS-ODN, then immunoprecipitation of IKKβ): only activates IKKβ in the presence of ISS-ODN
induction of HSP-70 gene transcription (HSP70; BMDM from IFN type 1 receptor knockout mice): did not result in induction of HSP-70
induction of inducible HSP-70 gene transcription (HSP70; BMDM, 10 μg/ml, 0-8 hours): induces inducible HSP-70
IL-6 and IL-12 secretion [4]: high levels
